Assay results taken from ChEMBL document CHEMBL1144759, “Neuroprotective limonoids of root bark of Dictamnus dasycarpus” (J Nat Prod, 2008).
pEC50: −log10 of the molar value. Structures can show the parent of a compound that is named as a salt.

Tests used:
[1] = Neuroprotective activity against rat cortical cells assessed as glutamate-induced neurotoxicity by MTT assay; type: functional, cell-based
[2] = Neuroprotective activity against rat cortical cells at 0.1 uM assessed as glutamate-induced neurotoxicity by MTT assay; type: functional
[3] = Neuroprotective activity against rat cortical cells at 1.0 uM assessed as glutamate-induced neurotoxicity by MTT assay; type: functional
[4] = Neuroprotective activity against rat cortical cells at 10.0 uM assessed as glutamate-induced neurotoxicity by MTT assay; type: functional

SMILES | pEC50 [1] | Emax at 0.1 µM [2] | Emax at 1 µM [3] | Emax at 10 µM [4]
CC1=C2C(=O)O[C@@H](c3ccoc3)[C@]2(C)CC[C@@H]1O | 7.01 | 51.1% |  | 
CC1=C2C(=O)O[C@@H](c3ccoc3)[C@]2(C)CC[C@H]1O[C@@H]1O[C@H](CO)[C@@H](O)[C@H](O)[C@H]1O | 6.15 |  | 53% | 
CC1=CCC[C@@]2(C)[C@H](c3ccoc3)OC(=O)[C@H]3O[C@]132 [CALODENDROLIDE] | 7.72 | 71.9% |  | 
CC1=C2[C@@H](O)C(=O)O[C@@H](c3ccoc3)[C@]2(C)CC[C@@H]1O [DICTAMDIOL A] | 7.17 | 68.1% |  | 
CC1=C2[C@H](O)C(=O)O[C@@H](c3ccoc3)[C@]2(C)CC[C@H]1O [DICTAMDIOL B] |  | 45.6% |  | 
CC1=C2[C@H](O)C(=O)O[C@@H](c3ccoc3)[C@]2(C)CC[C@@H]1O [DICTAMDIOL] |  | 35.3% |  | 
C[C@H]1C2=C(O)C(=O)O[C@@H](c3ccoc3)[C@]2(C)CC[C@@H]1O[C@@H]1O[C@H](CO)[C@@H](O)[C@H](O)[C@H]1O [DICTAMNUSINE] | 7.38 | 62.1% |  | 
C[C@]12N[C@H](Cc3ccccc31)c1ccccc12 [DIZOCILPINE MALEATE] | 6.32 |  |  | 83.8%
CC1=C2C(=O)O[C@@H](c3ccoc3)[C@]2(C)CCC1 [FRAXINELLONE] | 7.66 | 70.4% |  | 
CC1=C2C(=O)O[C@@H](c3ccoc3)[C@]2(C)CCC1=O [FRAXINELLONONE] |  |  | 47.6% | 
CC1(C)O[C@H]2CC(=O)OC[C@]23[C@H]2CC[C@@]4(C)[C@H](c5ccoc5)OC(=O)[C@H]5O[C@]54[C@]2(C)C(=O)C[C@@H]13 [LIMONIN] | 7.74 | 75.9% |  | 
CC1(C)OC(=O)C=C[C@]2(C)[C@H]3CC[C@@]4(C)[C@H](c5ccoc5)OC(=O)[C@H]5O[C@]54[C@]3(C)C(=O)C[C@@H]12 [OBACUNONE] | 7.41 | 63.9% |  | 
CC1(C)O[C@H]2CC(=O)OC[C@]23[C@H]2CC[C@@]4(C)[C@H](c5ccoc5)OC(=O)[C@H]5O[C@]54[C@]2(C)[C@@H](O)C(=O)[C@@H]13 [RUTAEVIN] | 5.51 |  |  | 65.4%
